Measurements reported in patent US20240317744A1, “Bicyclic Ureas As Kinase Inhibitors” (Incyte Corporation, priority 2023, published 2024).
pIC50: −log10 of the molar value.

Assays:
[1] = target: T1, pseudo-kinase domain (JH2, amino-acids 536-812) of human V617F mutant JAK2 (Homo sapiens, UniProt O60674, F794H/V617F/W659A/W777A); test: JAK2 LanthaScreen JH2-V617F Binding Assay; conditions: JAK2 JH2-V617F 0.26 nM, 50 nM tracer, 1 hour at 25° C.; read-out: JH2 BIND V617F
T1 construct: pseudo-kinase domain (JH2, amino-acids 536-812 with 3 surface mutations W659A, W777A, F794H); His (C); purchased BPS Bioscience 79498; host or cells: baculovirus expression system
Summary of the method: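 This is a TR-FRET tracer-displacement format with a 1 h, 25 °C incubation. It combined 0.26 nM baculovirus-expressed biotinylated JH2-V617F, 50 nM fluorescent JAK2-JH2 tracer and 0.25 nM streptavidin-Tb cryptate in 50 mM Tris pH 7.5, 10 mM MgCl2, 5 mM DTT. Background came from 2 mM ATP, and IC50 values were from four-parameter dose-response fits.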

[2] = target: T2, pseudo-kinase domain (JH2, amino-acids 536-812) of human Wild Type JAK2 (Homo sapiens, UniProt O60674, F794H/W659A/W777A); test: JAK2 LanthaScreen JH2-WT Binding Assay; conditions: JAK2 JH2-WT 0.145 nM, 50 nM tracer, 1 hour at 25° C.; read-out: JH2 BIND WT
T2 construct: pseudo-kinase domain (JH2, amino-acids 536-812 with 3 surface mutations W659A, W777A, F794H); His (C); purchased BPS Bioscience 79463; host or cells: baculovirus expression system
Summary of the method: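 Binding was measured by TR-FRET between streptavidin-Tb (0.25 nM) on biotinylated JH2 (0.145 nM) and 50 nM fluorescent tracer, with compound dose series, 1 h at 25° C; IC50 fitted.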

[3] = target: catalytic domain (JH1, amino acids 808-1132) of human JAK2 (Homo sapiens, UniProt O60674); test: JAK2 HTRF Enzyme Activity Assay; type: biochemical; conditions: ATP 30 µM, 60 minutes at 25° C.; read-out: V617F ENZ 30 UM
[4] = target: T3, catalytic domain (JH1, amino acids 826-1132) of human JAK2 (Homo sapiens, UniProt O60674); test: JAK2 LanthaScreen JH1 Binding Assay; conditions: JAK2 JH1 1.5 nM, 50 nM tracer, 2 hours at 25° C.; read-out: JH1 BIND
T3 construct: catalytic domain (JH1, amino acids 826-1132) of human JAK2; FLAG (N); biotin (biotinylated); purchased Carna Biosciences 08-445-20N; host or cells: baculovirus expression system
Summary of the method: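 TR-FRET tracer-displacement format: compound IC50 from four-parameter curves after 2 h at 25° C. Reaction held 1.5 nM biotinylated, FLAG-tagged JH1 (aa 826-1132), 50 nM tracer, 0.5 nM Streptavidin-Tb, pH 7.5 Tris buffer; 2 mM ATP set nonspecific background.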

T3 sequence (O60674 826-1132): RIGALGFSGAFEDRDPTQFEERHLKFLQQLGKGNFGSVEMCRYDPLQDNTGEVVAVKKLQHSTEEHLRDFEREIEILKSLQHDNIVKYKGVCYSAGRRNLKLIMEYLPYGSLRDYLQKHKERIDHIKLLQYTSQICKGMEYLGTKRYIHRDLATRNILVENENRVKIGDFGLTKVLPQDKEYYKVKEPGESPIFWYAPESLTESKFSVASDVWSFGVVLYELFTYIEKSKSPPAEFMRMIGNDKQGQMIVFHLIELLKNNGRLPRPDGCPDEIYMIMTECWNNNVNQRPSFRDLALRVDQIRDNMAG
Sequence of catalytic domain (JH1, amino acids 808-1132) of human JAK2 (O60674 808-1132 limits assumed): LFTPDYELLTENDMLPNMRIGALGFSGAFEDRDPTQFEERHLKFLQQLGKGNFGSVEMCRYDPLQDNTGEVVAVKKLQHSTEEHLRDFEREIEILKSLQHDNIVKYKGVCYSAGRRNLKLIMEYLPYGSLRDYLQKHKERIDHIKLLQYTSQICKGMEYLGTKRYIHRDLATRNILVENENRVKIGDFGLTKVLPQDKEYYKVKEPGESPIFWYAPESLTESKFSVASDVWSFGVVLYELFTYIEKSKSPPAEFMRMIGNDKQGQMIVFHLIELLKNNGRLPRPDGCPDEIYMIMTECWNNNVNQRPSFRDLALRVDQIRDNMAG
T2 sequence (O60674 536-812 W659A/W777A/F794H): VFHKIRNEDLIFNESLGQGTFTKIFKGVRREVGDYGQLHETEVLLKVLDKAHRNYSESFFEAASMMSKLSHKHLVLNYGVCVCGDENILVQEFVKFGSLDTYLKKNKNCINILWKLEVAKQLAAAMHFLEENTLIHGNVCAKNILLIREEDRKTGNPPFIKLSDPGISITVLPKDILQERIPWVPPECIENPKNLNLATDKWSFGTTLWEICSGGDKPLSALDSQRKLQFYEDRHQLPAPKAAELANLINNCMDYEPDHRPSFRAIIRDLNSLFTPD
T1 sequence (O60674 536-812 V617F/W659A/W777A/F794H): as the sequence (O60674 536-812 W659A/W777A/F794H) above, with V82F counted along it

Structure (SMILES)	pIC50 [1]	pIC50 [2]	pIC50 [3]	pIC50 [4]
COC(=O)N[C@@H]1CC[C@@H](n2c(=O)n(C)c3cnc(Nc4ccc(F)c(-c5ccc(CC#N)cc5)n4)cc32)C1 [Example 71, Methyl ((1R,3R)-3-(6-((6-(4-(cyanomethyl)phenyl)-5-fluoropyridin-2-yl)amino)-3-methyl-2-oxo-2,3-dihydro-1H-imidazo[4,5-c]pyridin-1-yl)cyclopentyl)carbamate]	≥ 8.00	≥ 8.00	< 6.00	< 6.00
COC(=O)N[C@@H]1CC[C@@H](n2c(=O)n(C)c3cnc(Nc4ccc(F)c(-c5ccc(C6CC6)cc5)n4)cc32)C1 [Example 72, Methyl ((1R,3R)-3-(6-((6-(4-cyclopropylphenyl)-5-fluoropyridin-2-yl)amino)-3-methyl-2-oxo-2,3-dihydro-1H-imidazo[4,5-c]pyridin-1-yl)cyclopentyl)carbamate]	7.00 to 8.00	≥ 8.00	< 6.00	< 6.00
COC(=O)N[C@@H]1CC[C@@H](n2c(=O)n(C)c3cnc(Nc4ccc(F)c(-c5ccc(OC(F)(F)F)cc5)n4)cc32)C1 [Example 73, Methyl ((1R,3R)-3-(6-((5-fluoro-6-(4-(trifluoromethoxy)phenyl)pyridin-2-yl)amino)-3-methyl-2-oxo-2,3-dihydro-1H-imidazo[4,5-c]pyridin-1-yl)cyclopentyl)carbamate]	7.00 to 8.00	7.00 to 8.00	< 6.00	< 6.00
[2H]C([2H])([2H])n1c(=O)n([C@@H]2CC[C@@H](NC(=O)OC)C2)c2cc(Nc3cc(CN4CCOCC4)cc(-c4ccc5c(c4)OCCO5)n3)ncc21 [Example 74, Methyl ((1R,3R)-3-(6-((6-(2,3-dihydrobenzo[b][1,4]dioxin-6-yl)-4-(morpholinomethyl)pyridin-2-yl)amino)-3-(methyl-d3)-2-oxo-2,3-dihydro-1H-imidazo[4,5-c]pyridin-1-yl)cyclopentyl)carbamate]	≥ 8.00	≥ 8.00	< 6.00	< 6.00
[2H]C([2H])([2H])n1c(=O)n([C@@H]2CC[C@@H](NC(=O)OC)C2)c2cc(Nc3ccnc(-c4ccnc(OC)c4)n3)ncc21 [Example 75, Methyl ((1R,3R)-3-(6-((2-(2-methoxypyridin-4-yl)pyrimidin-4-yl)amino)-3-(methyl-d3)-2-oxo-2,3-dihydro-1H-imidazo[4,5-c]pyridin-1-yl)cyclopentyl)carbamate]	≥ 8.00	≥ 8.00	< 6.00	< 6.00
[2H]C([2H])([2H])n1c(=O)n([C@@H]2CC[C@@H](NC(=O)OC)C2)c2cc(Nc3cc(C(=O)N4CCN5CCCCC5C4)cc(-c4ccc5c(c4)OCCO5)n3)ncc21 (stereo partly drawn) [Example 76, Methyl ((1R,3R)-3-(6-((6-(2,3-dihydrobenzo[b][1,4]dioxin-6-yl)-4-(octahydro-2H-pyrido[1,2-a]pyrazine-2-carbonyl)pyridin-2-yl)amino)-3-(methyl-d3)-2-oxo-2,3-dihydro-1H-imidazo[4,5-c]pyridin-1-yl)cyclopentyl)carbamate]	≥ 8.00	≥ 8.00	< 6.00	< 6.00
COC(=O)N[C@@H]1CC[C@@H](n2c(=O)n(C)c3cnc(Nc4ccnc(N5CCC6(CC6)C5)n4)cc32)C1 [Example 77, Methyl ((1R,3R)-3-(6-((2-(5-azaspiro[2.4]heptan-5-yl)pyrimidin-4-yl)amino)-3-methyl-2-oxo-2,3-dihydro-1H-imidazo[4,5-c]pyridin-1-yl)cyclopentyl)carbamate]	≥ 8.00	≥ 8.00	< 6.00	< 6.00
COC(=O)N[C@@H]1CC[C@@H](n2c(=O)n(C)c3cnc(Nc4ccnc(N5CCC(F)(F)C5)n4)cc32)C1 [Example 78, Methyl ((1R,3R)-3-(6-((2-(3,3-difluoropyrrolidin-1-yl)pyrimidin-4-yl)amino)-3-methyl-2-oxo-2,3-dihydro-1H-imidazo[4,5-c]pyridin-1-yl)cyclopentyl)carbamate]	≥ 8.00	≥ 8.00	< 6.00	< 6.00
COC(=O)N[C@@H]1CC[C@@H](n2c(=O)n(C)c3cnc(Nc4ccnc(N5CCC(C(F)(F)F)CC5)n4)cc32)C1 [Example 79, Methyl ((1R,3R)-3-(3-methyl-2-oxo-6-((2-(4-(trifluoromethyl)piperidin-1-yl)pyrimidin-4-yl)amino)-2,3-dihydro-1H-imidazo[4,5-c]pyridin-1-yl)cyclopentyl)carbamate]	≥ 8.00	≥ 8.00	< 6.00	< 6.00
[2H]C([2H])([2H])n1c(=O)n([C@@H]2CC[C@@H](NC(=O)OC)C2)c2cc(Nc3cc(C(=O)N4CC[C@@H](F)C4)cc(-c4ccc5c(c4)OCCO5)n3)ncc21 [Example 80, Methyl ((1R,3R)-3-(6-((6-(2,3-dihydrobenzo[b][1,4]dioxin-6-yl)-4-((R)-3-fluoropyrrolidine-1-carbonyl)pyridin-2-yl)amino)-3-(methyl-d3)-2-oxo-2,3-dihydro-1H-imidazo[4,5-c]pyridin-1-yl)cyclopentyl)carbamate]	≥ 8.00	≥ 8.00	< 6.00	< 6.00
COC(=O)N[C@@H]1CC[C@@H](n2c(=O)n(C)c3cnc(Nc4ccn(-c5ccncc5)n4)cc32)C1 [Example 81, Methyl ((1R,3R)-3-(3-methyl-2-oxo-6-((1-(pyridin-4-yl)-1H-pyrazol-3-yl)amino)-2,3-dihydro-1H-imidazo[4,5-c]pyridin-1-yl)cyclopentyl)carbamate]	6.30 to 7.00	6.30 to 7.00	< 6.00	< 6.00
[2H]C([2H])([2H])n1c(=O)n([C@@H]2CC[C@@H](NC(=O)OC)C2)c2cc(Nc3cc(C(=O)N4CCOCC4)cc(-c4ccc5c(c4)OCCO5)n3)ncc21 [Example 82, Methyl ((1R,3R)-3-(6-((6-(2,3-dihydrobenzo[b][1,4]dioxin-6-yl)-4-(morpholine-4-carbonyl)pyridin-2-yl)amino)-3-(methyl-d3)-2-oxo-2,3-dihydro-1H-imidazo[4,5-c]pyridin-1-yl)cyclopentyl)carbamate]	≥ 8.00	≥ 8.00	< 6.00	< 6.00
COC(=O)N[C@@H]1CC[C@@H](n2c(=O)n(C)c3cnc(Nc4ccnc(NC5CCC(F)(F)C5)n4)cc32)C1 (stereo partly drawn) [Example 83, Methyl ((1R,3R)-3-(6-((2-((3,3-difluorocyclopentyl)amino)pyrimidin-4-yl)amino)-3-methyl-2-oxo-2,3-dihydro-1H-imidazo[4,5-c]pyridin-1-yl)cyclopentyl)carbamate]	7.00 to 8.00	≥ 8.00	< 6.00	< 6.00
COC(=O)N[C@@H]1CC[C@@H](n2c(=O)n(C)c3cnc(Nc4cc(C)nc(N5CCC(F)(F)C5)n4)cc32)C1 [Example 84, Methyl ((1R,3R)-3-(6-((2-(3,3-difluoropyrrolidin-1-yl)-6-methylpyrimidin-4-yl)amino)-3-methyl-2-oxo-2,3-dihydro-1H-imidazo[4,5-c]pyridin-1-yl)cyclopentyl)carbamate]	≥ 8.00	≥ 8.00	< 6.00	< 6.00
COC(=O)N[C@@H]1CC[C@@H](n2c(=O)n(C)c3cnc(Nc4ccnc(NC5CCOCC5)n4)cc32)C1 [Example 85, Methyl ((1R,3R)-3-(3-methyl-2-oxo-6-((2-((tetrahydro-2H-pyran-4-yl)amino)pyrimidin-4-yl)amino)-2,3-dihydro-1H-imidazo[4,5-c]pyridin-1-yl)cyclopentyl)carbamate]	7.00 to 8.00	7.00 to 8.00	< 6.00	< 6.00
COC(=O)N[C@@H]1CC[C@@H](n2c(=O)n(C)c3cnc(Nc4cccc(C(=O)N5CCCCC5)n4)cc32)C1 [Example 86, Methyl ((1R,3R)-3-(3-methyl-2-oxo-6-((6-(piperidine-1-carbonyl)pyridin-2-yl)amino)-2,3-dihydro-1H-imidazo[4,5-c]pyridin-1-yl)cyclopentyl)carbamate]	6.30 to 7.00	7.00 to 8.00	< 6.00	< 6.00
